Data set [1] concerns BRD in high-risk calves. Nature of the data set: BRD prevention in high-risk calves, weekly injections (Example 13). It is filed as in vivo. The conditions noted are these: weekly injections over five weeks; rupatadine 7 mg/kg subcutaneous, tripelennamine 1 mg/kg, WEB2086 10 mg/kg; five calves per group. The procedure:
Twenty-five high-risk BRD calves were transported to a new barn and five each were assigned to different treatment groups: no treatment, weekly subcutaneous injections of 7 mg/kg of rupatadine, weekly injections of 1 mg/kg tripelennamine, weekly injections of 10 mg/kg WEB2086, and weekly injections of 1 mg/kg tripelennamine and 10 mg/kg WEB2086. The animals were observed over the next five weeks twice daily for BRD. Any animal who required antibiotics for treating the clinical signs of BRD was classified as having BRD. […] Four of the five (80%, n=4 of 5) animals receiving tripelennamine only developed BRD.

Data set [2] concerns the target T1, Bovine H1 histamine receptor (Bos taurus, UniProt P30546).
T1 construct: expressed in transfected cells; host or cells: BHK cells, transient, lipofectamine, pcDNA3.3
Nature of the data set: histamine-mediated intracellular calcium accumulation in BHK cells transiently expressing bovine H1 histamine receptor. The format is cell-based. The following applies: 10 nM histamine. The procedure: Bovine H1 histamine receptor was cloned into pcDNA3.3 expression vector and transiently expressed in BHK tissue culture cells using lipofectamine as per Carlson et al. Ten nM histamine was then added to the cells in the presence of various concentrations of rupatadine, tripelennamine, lexipafant, or WEB2086. Intracellular calcium accumulation was monitored in the transfected cells using a commercially available kit (Abcam, Cambridge, Mass.). IC50 values were then determined by identifying the concentration of the antagonist that reduced the maximal PAF-mediated intracellular calcium accumulation by 50%. […] Therefore, as showing in Examples 11 and 12, rupatadine is the only antihistamine that can also block the function of PAFR.
(In general: A change in cytosolic calcium serves as a functional read-out for many receptors and channels.)

In data set [3] the target is T2, Bovine PAFR (Bos taurus, UniProt Q9TTY5).
T2 construct: expressed in transfected cells; host or cells: BHK cells, transient, lipofectamine, pcDNA3.3
T2 sequence (Q9TTY5 whole entry): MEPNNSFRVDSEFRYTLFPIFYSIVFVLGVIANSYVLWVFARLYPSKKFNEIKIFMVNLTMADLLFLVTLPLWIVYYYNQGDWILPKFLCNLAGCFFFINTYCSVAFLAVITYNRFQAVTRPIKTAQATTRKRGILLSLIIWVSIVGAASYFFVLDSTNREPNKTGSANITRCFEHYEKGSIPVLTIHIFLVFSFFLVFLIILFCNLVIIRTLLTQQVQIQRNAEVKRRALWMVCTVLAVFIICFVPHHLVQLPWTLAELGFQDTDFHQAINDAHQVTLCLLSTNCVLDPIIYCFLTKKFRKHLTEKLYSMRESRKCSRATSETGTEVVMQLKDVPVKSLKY
Nature of the data set: PAF-mediated intracellular calcium accumulation in BHK cells transiently expressing bovine PAFR. The conditions noted are these: 10 nM PAF; for block of bovine PAFR (PAF-mediated intracellular calcium accumulation), FIG. 11: antagonist 1-100 nM, PAFR antagonists panel; for block of bovine PAFR (PAF-mediated intracellular calcium accumulation), FIG. 12: antihistamines 1-100 nM. The format is cell-based.
Description: Bovine PAFR was cloned into pcDNA3.3 expression vector and transiently expressed in BHK tissue culture cells using lipofectamine as per Carlson et al., J Biol Chem, 271:23146053 (1996), herein incorporated by reference in its entirety. Ten nM PAF was then added to the cells in the presence of various concentrations of various antagonists: rupatadine, lexipafant (as in Kingsnorth, et al., BJS, 82:1414-20 (1995), herein incorporated in its entirety), and WEB2086 a PAF antagonist which has not been commercialized and/or used in humans to date (as in Casals-Stenzel et al., J of Pharmacolo Experimental Therapeutics, 241:974-81 (1987), herein incorporated in its entirety), as well as tripelennamine, a bovine-approved antihistamine at concentrations ranging between 1-100 nM. Intracellular calcium accumulation was monitored in the transfected cells using a commercially available kit (Abcam, Cambridge). IC50 values were then determined by identifying the concentration of the antagonist that reduced the maximal PAF-mediated intracellular calcium accumulation by 50%.
Various antihistamines were also tested. […] Intracellular calcium accumulation was monitored in the transfected cells using a commercially available kit (Abcam, Cambridge). IC50 values were then determined by identifying the concentration of the antagonist that reduced the maximal PAF-mediated intracellular calcium accumulation by 50%.

Data set [4] concerns the target T3, PAFR (Bos taurus, UniProt Q9TTY5).
T3 construct: second messenger accumulation in calf blood cells that have an increase in expression of PAFR; endogenous in cells; host or cells: bovine whole blood cells (ex vivo)
Nature of the data set: stress hormone- and commensal oral bacteria-mediated second messenger accumulation in calf blood cells. The format is cell-based, cattle. The conditions noted are these: 500 nM inhibitor; cortisol 5 ng/mL, norepinephrine 100 pg/mL, 10^6 CFUs/mL commensal oral bacteria; six hours at 37° C. The source says: A PAFR inhibitor blocks the stress hormone- and commensal oral bacteria-mediated second messenger accumulation in calf blood cells that have an increase in expression of PAFR. Studies presented in Example 1 and FIG. 1 were repeated with the inclusion of the compositions comprising the anti-inflammatory drug rupatadine according to the invention. Blood was drawn from 10 animals that have an increase in PAFR expression (those in which an RT-PCR amplicon was visible after 10-15 cycles) and 10 animals with “normal” or no PAFR expression (those in which an RT-PCR amplicon was visible after 30-45 cycles).
Approximately 5 mL of whole blood was collected from the jugular or caudal vein of non-transported juvenile and adult cattle. Blood was placed in EDTA tubes, aliquoted, and cortisol (5 ng/mL) and norepinephrine (100 pg/mL) were added to some of the blood. The next day, blood samples were incubated with 0 or 10^6 CFUs/mL of commensal oral bacteria, 0 or 500 nM of the inhibitor, and a second messenger reagent for six hours at 37° C. with gentle rolling. After the six-hour incubation period, blood samples were analyzed for the production of second messengers. Data was standardized based on second messenger production in the presence of vehicle. […] Fifty ng of total RNA was then subjected to semi-quantitative RT-PCR to confirm the PAFR expression status of each animal.

A short description of data set [5]: pharmacotherapeutic study, blood levels after oral administration. The format is in vivo. The following applies: daily oral doses of 30 mg/animal for 5 days; six calves; FIG. 9. The procedure:
A pharmacotherapeutic study was completed to confirm the PAFRi survives the rumen and reaches therapeutic blood and lung concentrations following oral administration to feedlot calves. Six calves were purchased and given daily oral doses of 30 mg/animal of the drug rupatadine for 5 days. Blood was drawn five times on day one and twice per day thereafter to measure the blood levels of rupatadine.
In addition to the blood levels of the drug, the amount of the drug in the muscle tissue is also analyzed. Six recently weaned feedlot calves were orally dosed with […] of rupatadine once a day for five days, a dose that was determined based on allometric scaling from human data. Blood samples were taken at 0, 2, 4, 8, 12, 24, 48, 72, 96, and 120 hours after the first dose. Calves were euthanized at the 120-hour time point at which lungs samples were removed. Samples were submitted to the PhAST laboratory at Iowa State University, for LCMS-based quantitation of the drug and its primary metabolite that is pharmacologically active.

Data set [6] relates to BRD in feedlot calves. Nature of the data set: BRD prevention at the feedlot, drug in the feed (Examples 5-7). The format is in vivo. The procedure:
An initial study was performed to confirm BRD prevention at the feedlot using an anti-inflammatory composition comprising rupatadine, the oral inhibitor of PAFR. A total of 18 calves were evaluated with the treatment arm receiving a dosage rate of 0.3 mg/kg. Calves were provided the drug in the feed during the first three weeks after entering the feedlot which is within the high risk 6-week period following transfer of the animal. Calves were purchased from a location in Joplin, Mo. having an overall incidence of BRD at >40% which is higher than the standard incidence of about 10% in cattle.
A further study was performed to confirm BRD prevention at the feedlot using the anti-inflammatory composition comprising rupatadine. The same methodology of Example 5 was employed with the modification of the number of calves and the dosage rate. The dosage rate was increased to 0.6 mg/kg. The number of calves were increased to 24 in total. The results are consistent to the first trial, including: 41.7% of treated calves (n=5 of 12) developed BRD whereas 100% of untreated calves (n=12 of 12) developed BRD.
A further study was performed to confirm BRD prevention at the feedlot using the anti-inflammatory composition comprising rupatadine as outlined in Example 5 with the modification of the number of calves (20 total) and the dosage rate. The dosage rate increased to 1.2 mg/kg.

The test system of data set [7] is BRD in high-risk calves. Nature of the data set: BRD prevention in high-risk calves, comparison of rupatadine treatment methods (Example 14). It is filed as in vivo. The following applies: for calves that developed BRD: five-week observation, n=6. The procedure:
In order to test various treatment methods of rupatadine, 25 high-risk calves were transported to a new farm. Seven calves were used as controls, six were given rupatadine as a single oral dose of 1 mg/kg, six were given rupatadine as a single subcutaneous injection of 7 mg/kg, six calves were given weekly subcutaneous injections of 7 mg/kg rupatadine. The animals were observed over the next five weeks twice daily for BRD. Any animal who required antibiotics for treating the clinical signs of BRD was classified as having BRD.

Data set [8] concerns PAFR. Nature of the data set: weekly blood PAFR level by qRT-PCR (Example 14). It is filed as in vivo, calves. The procedure: Blood was extracted from all 25 calves was extracted weekly and the level of PAFR was assayed using qRT-PCR and the theoretical copies of transcript/200 ng of total RNA. […] However, it dropped the most in the weekly depot injection calves during the last three weeks of observations.
For orientation: In qPCR the cycle at which signal appears reflects the starting amount.

Data set [9] has as its system lung pathology. Nature of the data set: lung necropsy after five weeks of treatment (Example 13). It is filed as in vivo. The following applies: after five weeks of weekly 7 mg/kg subcutaneous injections; BRD(+) calves usually >25%. The text has this:
After the five weeks, the rupatadine treated animals were euthanized and the lungs removed and necropsied. Three veterinarians then assessed the lungs for signs of disease, such as abscessation or consolidation. […] Lung pathology in BRD(+) calves is usually >25%, and of the rupatadine treated animals, there was only about 5-10% disease identified by the veterinarians.

T1 sequence (P30546 whole entry): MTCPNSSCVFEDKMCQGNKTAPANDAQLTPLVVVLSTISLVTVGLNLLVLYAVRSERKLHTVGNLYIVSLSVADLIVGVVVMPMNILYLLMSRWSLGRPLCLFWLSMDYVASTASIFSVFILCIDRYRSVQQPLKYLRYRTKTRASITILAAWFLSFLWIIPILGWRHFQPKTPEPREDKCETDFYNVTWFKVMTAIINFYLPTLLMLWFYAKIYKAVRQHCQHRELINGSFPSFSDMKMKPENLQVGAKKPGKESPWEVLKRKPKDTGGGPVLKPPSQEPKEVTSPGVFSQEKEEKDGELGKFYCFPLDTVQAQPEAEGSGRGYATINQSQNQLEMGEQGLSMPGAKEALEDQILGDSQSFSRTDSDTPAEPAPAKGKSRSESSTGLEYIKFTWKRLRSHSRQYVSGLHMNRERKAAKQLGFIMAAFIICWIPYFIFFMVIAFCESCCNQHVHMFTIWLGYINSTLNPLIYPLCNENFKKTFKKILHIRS
T3 sequence (Q9TTY5 whole entry): as the sequence (Q9TTY5 whole entry) above

Turning to `Cc1nnc2n1-c1sc(CCC(=O)N3CCOCC3)cc1C(c1ccccc1Cl)=NC2` [WEB2086], the “animals that developed BRD” value in data set [1] worked out at 100%. Besides, the “block of H1 histamine receptor function, FIG. 13” value (from here on “block … FIG. 13”) in data set [2] was “fail to black”. The “block of bovine PAFR (PAF-mediated intracellular calcium accumulation), FIG. 11” value in [3] is “blocked”.
With `CN(C)CCOC(c1ccccc1)c1ccccc1` [diphenhydramine], in data set [3], the “block of bovine PAFR (PAF-mediated intracellular calcium accumulation), FIG. 12” value is given as “do not block”.
In the case of `OCCOCCN1CCN(C(c2ccccc2)c2ccc(Cl)cc2)CC1` (stereo not shown) [hydroxyazine, hydroxyzine], the “block of bovine PAFR (PAF-mediated intracellular calcium accumulation), FIG. 12” value in data set [3] is reported as “do not block”.
For the molecule `CCOC(=O)[C@H](CC(C)C)N(C)S(=O)(=O)c1ccc(Cn2c(C)nc3cnccc32)cc1` [lexipafant], in [2], the “block … FIG. 13” value was “fail to black”. The “block of bovine PAFR (PAF-mediated intracellular calcium accumulation), FIG. 11” value in [3] is “blocked”.
With `CC(CN1c2ccccc2Sc2ccccc21)N(C)C` (stereo not shown) [promethazine], in data set [3], the “block of bovine PAFR (PAF-mediated intracellular calcium accumulation), FIG. 12” value is listed as “do not block”.
`COc1ccc(CN(CCN(C)C)c2ccccn2)cc1` [pyrilamine]: in data set [3], the “block of bovine PAFR (PAF-mediated intracellular calcium accumulation), FIG. 12” value is recorded as “do not block”.
As to `Cc1cncc(CN2CCC(=C3c4ccc(Cl)cc4CCc4cccnc43)CC2)c1` [rupatadine, 8-chloro-11-[1-[(5-methyl-3-pyridyl)methyl]-4-piperidyliden]-6,11-dihydro-5H-benzo[5,6]cyclohepta[1,2-b]pyridine], the “second messenger accumulation in samples with increased PAFR expression” value in data set [4] is reported as “indistinct from normal or non-expressing samples”. For the same molecule, the “animals that developed BRD” value in data set [1] stood at 0%. The “block … FIG. 13” value in [2] is given as “block”. For the same molecule, the “blood levels: time to reach therapeutic concentrations” value in [5] is reported as “reaches therapeutic concentrations more rapidly than in humans”. Moreover, in [6] (0.3 mg/kg in the feed during first three weeks after entering feedlot, 8 treated calves, within 5 weeks), the “treated calves that developed BRD” value is 50%. In data set [6] (0.3 mg/kg in the feed, versus calves that received no drug), the “reduction in BRD” value is listed as 50%. The “block of bovine PAFR (PAF-mediated intracellular calcium accumulation), FIG. 11” value in data set [3] was “blocked”. The “block of bovine PAFR (PAF-mediated intracellular calcium accumulation), FIG. 12” value in data set [3] was “blocks”. Besides, the “calves that developed BRD” value was found to be 100% in data set [7] (single oral dose of 1 mg/kg), 83.3% in [7] (single subcutaneous long-acting injection of 7 mg/kg) and 16.7% in data set [7] (weekly subcutaneous injections of 7 mg/kg). For the same molecule, the “day on which BRD developed” value in [7] (weekly subcutaneous injections of 7 mg/kg, the one calf that developed BRD) was found to be 31 days. In data set [8] (weekly depot injection 7 mg/kg versus control and other rupatadine treatments, FIG. 21), the “decrease in PAFR expression over five weeks” value was “greatest decrease”. The “PAFR expression at 35 days” value in [8] (weekly injections 7 mg/kg, 35 days) is on record as “below ‘normal’ expression”. For the same molecule, the “lung disease identified by the veterinarians” value in data set [9] is reported as 5-10%.
On to `CN(C)CCN(Cc1ccccc1)c1ccccn1` [tripelennamine], for which the “animals that developed BRD” value in [1] amounted to 80%. The “block … FIG. 13” value in [2] is “block”. For the same molecule, in [3], the “block of bovine PAFR (PAF-mediated intracellular calcium accumulation), FIG. 11” value is on record as “not blocked” and the “block of bovine PAFR (PAF-mediated intracellular calcium accumulation), FIG. 12” value is recorded as “do not block”.
